Assays:
Caspase-3 = experiment: Western blot of Caspase-3 cleavage form; assay type: cell-based, mice; settings: CT26 cells, 3 h, single agents
Protocol: The CT26 cell lysates from the variety of the treatments were prepared using RIPA lysis buffer for immunoblotting of Cyclin D1 (Cell Signaling Technology, #92G2), Cyclin A (Santa Cruz Biotechnology, #sc-271,645), Hsp70 (Santa Cruz Biotechnology, #SC24), Caspase-3, and cleavage form of Caspase-3 (Cell Signaling Technology, #9662S). Western blot analysis was performed as previously reported.

CT26 cells = experiment: WST1 cell viability assay; assay type: cell-based, mice; settings: 24 h; for anti-tumor efficacy (cell viability), single use: C: 0 ~ 160 μM, R: 12.5 ~ 200 μM; for IC50: Mus musculus, WST1
Protocol: The mice colon cancer cell line, CT26, was provided by Johnpro Biotech (Taipei, Taiwan). The cells were maintained in ATCC-formulated RPMI-1640 Medium containing 10% heat-inactivated fetal bovine serum (FBS) and 1% antibiotic-antimycotic (GM) in a humidified incubator with 5% CO2 at 37 °C. […] The cell viability was determined through WST1 assay (Roche, Germany) after the 24-h treatment.

Row | SMILES | cleavage form of Caspase-3 (Caspase-3) | anti-tumor efficacy (cell viability), single use (CT26 cells) | IC50 (CT26 cells)
1 | COc1cc(/C=C/C(=O)CC(=O)/C=C/c2ccc(O)c(OC)c2)ccc1O [Curcumin, curcumin] | increased | dose-dependent | 26.8 ± 1.06 µM
2 | Oc1ccc(/C=C/c2cc(O)cc(O)c2)cc1 [Resveratrol, resveratrol] | increased | dose-dependent | 88.8 ± 1.07 µM

From publication PMC7324975 (BMC Cancer, 2020)
